Experimental data from publication PMC6152040, “Isolation and Characterization of Aphidicolin Derivatives from Tolypocladium inflatum” (Molecules : A Journal of Synthetic Chemistry and Natural …, 2017).

Tests used:
Assay type in all cases: cell-based
[1] = test system: A549 lung adenocarcinoma cells; assay: MTS cytotoxicity assay, A549; settings: Homo sapiens, MTS method, 72 h incubation
Experimental: (§1) Compounds 1, 4–8 were tested for the cytotoxicities against A549, CNE1-MP1, A375, and MCF-7 human cancer cell lines using MTS method.
(§2) Cytotoxic activity was tested against four human cancer cell lines (A549, CNE1-MP1, A375, and MCF-7) using the MTS method. For the MTS assay, the CellTiter 96® AQueous One Solution Reagent (Promega, Madison, WI, USA) was used following the manufacturer’s instruction. In a 96-well plate, each well was plated with 2–5 × 10^3 cells (It depends on the cell multiplication rate). […] The plate was incubated for 72 h at 37 °C in a humidified, 5% CO2 atmosphere. Proliferation assessed by adding 20 μL of MTS to each well in dark followed by a 90 min incubation at 37 °C. The assay plate was read at 490 nm using a microplate reader (Bio-Rad, Hercules, CA, USA). The assay was run in triplicate.

[2] = test system: CNE1-LMP1 stable oncoprotein LMP1 integrated nasopharyngeal carcinoma cells; assay: MTS cytotoxicity assay, CNE1-LMP1; settings: Homo sapiens, MTS method, 72 h incubation
Experimental: as §1, §2

[3] = test system: A375 malignant melanoma cells; assay: MTS cytotoxicity assay, A375; settings: Homo sapiens, A-375, MTS method, 72 h incubation
Experimental: as §1, §2

[4] = test system: MCF-7 breast cancer cells; assay: MTS cytotoxicity assay, MCF-7; settings: Homo sapiens, MCF7, MTS method, 72 h incubation
Experimental: as §1, §2

[5] = test system: HaCaT (human keratinocyte) cells; assay: MTS cytotoxicity assay, HaCaT negative control cells; settings: MTS method, 72 h incubation

| Structure (SMILES) | IC50 [1] [µM] | IC50 [2] [µM] | IC50 [3] [µM] | IC50 [4] [µM] | IC50 [5] [µM] |
| --- | --- | --- | --- | --- | --- |
| CC12COC(c3ccccc3)OC1CCC1(C)C2CCC2CC3CC21CCC3(O)CO (stereo not drawn) [Compound 1, Inflatin G] | 68.7 | 35.4 | 39.8 | 35.2 | 42.6 |
| C[C@@]1(CO)[C@H](O)CC[C@@]2(C)[C@H]1CC[C@H]1C[C@@H]3C[C@@]12CC[C@]3(O)CO [Compound 4, aphidicolin] | 16.2 | 3.12 | 37.3 | 42.3 | 10.4 |
| CC(=O)OC[C@@]1(O)CC[C@]23C[C@H]1C[C@@H]2CC[C@H]1[C@](C)(CO)[C@H](O)CC[C@@]13C [Compound 5, aphidicolin-17-monoacetate] | 5.2 | 4 | 40.5 | 66.2 | 8 |
| COc1cc(=O)oc(C(C)[C@H](C)O)c1C (stereo partly drawn) [Compound 6, gulypyrone A] | > 100 | > 100 | > 100 | > 100 | > 100 |
| C=C[C@H]1C[C@@H](C)C[C@@H](C)[C@@H]1c1c(O)ccn(O)c1=O [Compound 7 and 8, pyridoxatin rotamers A (7) and B (8)] | 0.44 | 0.2 | 0.1 | 0.17 | > 47.5 |
| CC(=O)O[C@H]1C(=O)[C@@]2(C)[C@H]([C@H](OC(=O)c3ccccc3)[C@]3(O)C[C@H](OC(=O)[C@H](O)[C@@H](NC(=O)c4ccccc4)c4ccccc4)C(C)=C1C3(C)C)[C@]1(OC(C)=O)CO[C@@H]1C[C@@H]2O [paclitaxel, reference compound] | 0.03 | 0.0042 | 0.0089 | 0.014 | 0.024 |
